Data as given in patent US12295396B2, “Antagonists of T2R54 and compositions and uses thereof” (Firmenich Incorporated, priority 2018, dated 2025).

What follows are molecules tested against T1, hT2R54 (Homo sapiens, UniProt P59534) (assay: Cell-based assay for measuring hT2R54 inhibition (FLIPR calcium, Fluo4AM, acetaminophen as bitter agonist)). Settings: Table 2; cells stably expressing hT2R54 and a promiscuous G protein; read-out: hT2R54 IC50.
T1 construct: expressed in transfected cells; it overexpresses a promiscuous G protein
T1 sequence (P59534 1-338): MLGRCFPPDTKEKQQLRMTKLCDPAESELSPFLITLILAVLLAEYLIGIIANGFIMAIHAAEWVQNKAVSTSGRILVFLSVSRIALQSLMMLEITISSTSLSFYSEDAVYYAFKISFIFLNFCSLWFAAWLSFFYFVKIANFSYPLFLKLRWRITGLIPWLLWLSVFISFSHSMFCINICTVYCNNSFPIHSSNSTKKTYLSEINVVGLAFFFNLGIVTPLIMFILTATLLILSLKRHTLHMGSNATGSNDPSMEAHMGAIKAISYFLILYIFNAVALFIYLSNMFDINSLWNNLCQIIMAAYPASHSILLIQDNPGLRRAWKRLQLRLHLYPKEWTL
In short: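 The readout was FLIPR calcium (Fluo4AM, 10 s baseline, 3 min post-addition) in cells stably carrying hT2R54 plus a promiscuous G protein, with host cells lacking hT2R54 as counter-control. Acetaminophen concentration series were tested with and without set test-compound levels. Half-maximal block of the agonist response gave the EC50/IC50.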

Structure (SMILES) | IC50 [nM]
COc1cc2c(cc1NC(=O)CN1CCN(C(=O)C3CCN(C)C3)CC1)OCO2 (centres unmarked) [compound 407] | > 10000
COc1cc2c(cc1NC(=O)CN1CCN(C(=O)CC3CCCO3)CC1)OCO2 (centres unmarked) [compound 408] | 880
COc1cc2c(cc1NC(=O)CN1CCN(C(=O)CC3CCCCO3)CC1)OCO2 (centres unmarked) [compound 409] | 500
CC(=O)c1cc2c(cc1NC(=O)C(C)N1CCN(C(=O)[C@H]3CCCO3)CC1)OCCO2 (some centres unmarked) [compound 412] | 170
COCc1ccc(C(=O)N2CCN(C(C)C(=O)Nc3cc4c(cc3C(C)=O)OCCO4)CC2)cc1 (centres unmarked) [compound 413] | 190
CCc1cc2c(cc1NC(=O)CN1CCN(C(=O)C3CCCO3)CC1)OCO2 (centres unmarked) [compound 414] | 7600

Next, values leading:

IC50 [nM] | Structure (SMILES)
1100 | COc1cc2c(cc1NC(=O)CN1CCN(C(=O)[C@H]3CCC(=O)O3)CC1)OCO2 [compound 402]
1400 | COc1cc2c(cc1NC(=O)C(C)N1CCN(C(C)=O)CC1)OCO2 (centres unmarked) [compound 403]
300 | COc1cc2c(cc1NC(=O)CN1CCN(C(=O)C3CCCC3)CC1)OCO2 [compound 404]
1000 | COc1cc2c(cc1NC(=O)CN1CCN(C(=O)C3CCCCC3C)CC1)OCO2 (centres unmarked) [compound 405]
1800 | COc1cc2c(cc1NC(=O)CN1CCN(C(=O)C3CCOC3)CC1)OCO2 (centres unmarked) [compound 406]
1140 | COc1cc2c(cc1NC(=O)CN1CCN(C(C)=O)CC1)CCC2 [compound 410]
170 | CC(=O)c1cc2c(cc1NC(=O)C(C)N1CCN(C(=O)[C@@H]3CCCO3)CC1)OCCO2 (some centres unmarked) [compound 411]

Same assay, conditions: Table 3; cells stably expressing hT2R54 and a promiscuous G protein; read-out: hT2R54 IC50

Structure (SMILES) | IC50 [nM]
CC(=O)c1cc2c(cc1NC(=O)CN1CCN(CC3CCCO3)CC1)OCO2 (centres unmarked) [compound 415] | 1300
COc1cc2c(cc1NC(=O)CN1CCN(CC3CCCO3)CC1)OCO2 (centres unmarked) [compound 416] | 4000

Same assay, conditions: Table 4; cells stably expressing hT2R54 and a promiscuous G protein; read-out: hT2R54 IC50

Structure (SMILES) | IC50 [nM]
CC(=O)c1cc2c(cc1NC(=O)CN1CCC(=O)CC1)OCO2 [compound 421] | 187
CC(=O)c1cc2c(cc1NC(=O)CN1CCSCC1)OCO2 [compound 422] | 50
CC(=O)c1cc2c(cc1NC(=O)CN1CCC(O)C1)OCO2 (centres unmarked) [compound 424] | 1590
COCCCN(C)CC(=O)Nc1cc2c(cc1C(C)=O)OCO2 [compound 425] | 643
COCCN(C)CC(=O)Nc1cc2c(cc1C(C)=O)OCO2 [compound 426] | 1150
CCN(CCCOC)CC(=O)Nc1cc2c(cc1C(C)=O)OCO2 [compound 427] | 373
CC(=O)c1cc2c(cc1NC(=O)CN1CCCC(NC(=O)OC(C)(C)C)C1)OCO2 (centres unmarked) [compound 429] | 1280
CC(=O)c1cc2c(cc1NC(=O)CN1CCC(NC(=O)OC(C)(C)C)CC1)OCO2 [compound 430] | 162
CC(=O)c1cc2c(cc1NC(=O)C(C)N1CCC(O)CC1)OCCO2 (centres unmarked) [compound 433] | 220
COC(=O)c1cc2c(cc1NC(=O)CN1CCC(O)CC1)OCO2 [compound 434] | 248

Other lines, results leading:

IC50 [nM] | Structure (SMILES)
439 | CC(=O)c1cc2c(cc1NC(=O)CN1CCCCC1)OCO2 [compound 417]
183 | CC(=O)c1cc2c(cc1NC(=O)CN1CCC(C)CC1)OCO2 [compound 418]
135 | CCOC(=O)[C@H]1CCCCN1CC(=O)Nc1cc2c(cc1C(C)=O)OCO2 [compound 419]
100 | CCOC(=O)[C@H]1CCCN1CC(=O)Nc1cc2c(cc1C(C)=O)OCO2 [compound 420]
1000 | CC(=O)c1cc2c(cc1NC(=O)CN1CCOc3ccccc31)OCO2 [compound 423]
650 | CCOC(=O)C1CN(C(=O)OC(C)(C)C)CCN1CC(=O)Nc1cc2c(cc1C(C)=O)OCO2 (centres unmarked) [compound 428]
900 | CC(=O)c1cc2c(cc1NC(=O)C(C)N1CCN(C(=O)OC(C)(C)C)CC1)OCO2 (centres unmarked) [compound 431]
1920 | CC(=O)c1cc2c(cc1NC(=O)CCN1CCOCC1)OCO2 [compound 432]
419 | COC(=O)c1cc2c(cc1NC(=O)CN1CCC(OC)CC1)OCO2 [compound 435]
287 | COC(=O)c1cc2c(cc1NC(=O)CN1CCOCC1)OCO2 [compound 436]
